Assay results as given in patent US20210008084A1, “MEVALONATE PATHWAY INHIBITOR AND PHARMACEUTICAL COMPOSITION THEREOF” (TSINGHUA UNIVERSITY, priority 2017, published 2021).

Experiments:
B16F10 cells [1] = assay: Type I interferon and ISG gene expression by Q-PCR in B16F10; assay type: cell-based, mouse; conditions: GGOH 20 μM with Sim 10 μM or Zol 10 μM, 48 h
Description: Method: B16F10 cells were cultured with RPMI medium 1640+10% FBS+1% PS, and the remaining cells were cultured with DMEM+10% FBS+1% PS. 5×10^5 B16F10 and 4T1 cells were plated in 6-well plates and adhered for 12 hours, and then treated with simvastatin and zoledronic acid in the figure, and the control group was treated with normal culture medium. A part of the cells treated with the drugs were lysed with 1 ml of Trizol, and RNA was extracted. The expression of IFN-β1, IRF7, IFI44L, IL-15, MAGEB-2 and other genes was detected by LightCycler® 480 II using a Q-PCR method (see table 3 for the primer sequence). In addition, the rescue effect of GGOH on the role of simvastatin and zoledronic acid to promote the release of type I interferon (IFN-β1) and the expression of type I interferon-related stimulated genes ISGs was also tested.

B16F10 cells [2] = assay: Phagocytosis of drug-treated B16F10 cells by bone marrow-derived DC cells; assay type: cell-based, mouse; conditions: B16F10 treated with Sim 30 μM 12 h, Zol 30 μM 24 h, Doxorubicin 10 μM 12 h; flow cytometry
Description: Method: C57/b6 mouse bone marrow cells were cultured in DC differentiation solution, RMPI 1640+10 ng/ml GM-CSF+10 ng/ml IL-4 containing 10% FBS for 7 days. It was ready for use when the percentage of DC cells was above 90%.
B16F10 cells were plated in 6-well plates at a density of 5×10^5. After being adhered for 12 hours, they were treated with Sim and Zol in the figure, and the control group was treated with normal culture medium. The cells treated with the drug were digested with trypsin, and the cells were obtained after centrifugation.
Cell Staining: Flow Cytometry Staining: B16F10 tumor cells were stained for 30 min in 1 ug/ml CFSE at room temperature, and washed twice with PBS after staining; BMDC cells were stained for 30 min in 1 uM CellTracker™ Red, and washed twice with PBS after staining. Cells were ready for use. Immunofluorescence staining: B16F10 cells were stained with DiD, and DC cells were stained with CFSE.
After the drug treatment, the B16F10 control group Ctrl, Sim treatment group, Zol treatment group, and DOX treatment group were co-incubated with DC cells in a 1:1 ratio for 3 hours in an incubator at 37° C., and fixed with 200 ul fluorescent antibody preservation solution (1 ml formaldehyde, 2 g glucose dissolved in 100 ml PBS) after the incubation. Flow cytometer BD FACSAria SORP was used for detection. Data was analyzed with Flojo 7.6.2 software. Cell Tracker™ Red-positive DC cells were first circled out, and the number of CellTracker™ Red-positive DC cells phagocytosing CFSE-positive tumor cells was analysized.

CT26 cells = assay: Drug-treated dying CT26 cells as tumor vaccine, re-challenge with live CT26 cells; assay type: in vivo, mouse; conditions: BALB/c mice immunized with CT26 cells treated 72 h; 30 days after transplantation; n=10
Description: Method: CT26 cells were treated with simvastatin or zoledronic acid. 1.5-3×10^6 dying cells were implanted subcutaneously in the right side of BALB/c mice. The control group was injected with PBS. 1×10^6 live CT26 cells were implanted subcutaneously in the left side of the mice, and tumor volume was observed and measured. Mice with tumor volumes >100 mm^3 were identified as tumor-growing mice, and the number of mice without tumor growth was recorded.
A key factor to determine the ability of drugs to induce immunogenic cell death is whether drug-treated tumor cells can be used as vaccines to protect the body against the re-challenge of the tumor cells. We treated CT26 mouse colon cancer cells with Sim and Zol for 72 h to a dying state, and BALB/c mice were immuned with these dying cells, wherein PBS was injected in the control group. After 7 days, the mice were injected with 5×10^5 live CT26 cells (re-challenge), and the tumor growth was observed after 7 days. 100% of the mice in the control group (n=10) grew tumors on day 9. After 30 days of transplantation, in mice immunized with CT26 cells treated with Sim (n=10) and Zol (n=10), the ratios of tumor-free mice were 80% and 90%, respectively, with statistical difference (FIG. 5).

4T1 cells = assay: CRT and ERp57 on tumor cell membrane after intratumoral injection, 4T1 subcutaneous model; assay type: in vivo, mouse; conditions: 4T1 tumors in BALB/c mice, harvested day 14
Description: In vivo experiments: 1×10^6 4 T1 cells were transplanted subcutaneously into the left hip of BALB/c mice and administered starting on the 8th day after tumor transplantation: Sim, dissolved in 75% DMSO, 2 mg/kg, intratumoral injection (i.t.), once every two days for a total of 3 times; Zol, dissolved in sterile PBS, 1 mg/kg, i.t. for once. Tumors were harvested on the 14th day after tumor transplantation. Tumor dissociation kit (mouse) was used to dissociate the tumor into single cells for staining. The staining procedure was performed according to the in vitro experiments as mentioned above.

B16F10 cells [3] = assay: Apoptosis of B16F10 cells, Annexin V and PI staining, flow cytometry; assay type: cell-based, mouse; conditions: after the drug treatment
Description: After the drug action, the cells were digested with trypsin into a single-cell suspension, washed with PBS, and stained with Annexin V and PI according to the steps of the apoptosis kit. After staining, data was collected by a flow cytometer, and the data was analyzed by FlowJo7.6. Total RNA was extracted from cells according to the Trizol method, and the RNA was used as a template, and the RNA was reverse transcripted using a reverse transcription kit to cDNA. The obtained cDNA was used for real-time quantitative PCR. 10 μl reaction system was configured according to qPCR SYBR Green Master Mix product instructions, three replicates were set up for each sample. The experimental data was collected using a fluorogenic quantitative PCR instrument LightCycler480 of Roche, and the data was calculated according to the 2^−ΔΔc (t) method.

[4] = after at least 3 years of treatment; more than 1,800 patients; cited from earlier work
melanoma = conditions: patients progressing after Ipilimumab; cited from earlier work

Q: With `CC(C)=CCC/C(C)=C/CC/C(C)=C/CC/C(C)=C/CO` [GGOH] as the compound, how does the “effect of GGOH on release of type I interferon and ISG by simvastatin and zoledronic acid” value (B16F10 cells [1]) read?
A: The value was “counteract”.

Q: For `COc1cccc2c1C(=O)c1c(O)c3c(c(O)c1C2=O)C[C@@](O)(C(=O)CO)C[C@@H]3O[C@H]1C[C@H](N)[C@H](O)[C@H](C)O1` [dox, doxorubicin], which “DC cells that phagocytosed tumor cells” value (B16F10 cells [2]) is on record?
A: Its value is “approximately 38%”.

Q: With `CCC(C)(C)C(=O)O[C@H]1C[C@@H](C)C=C2C=C[C@H](C)[C@H](CC[C@@H]3C[C@@H](O)CC(=O)O3)[C@H]21` [simvastatin] as the compound, how does the “ratio of tumor-free mice” value (CT26 cells) read?
A: Its value is 80%.

Q: And the “CRT expressed on the membrane surface” value (4T1 cells)?
A: Its value is “about 1.7 times that of the control group”.

Q: What about the “ERp57 expressed on the membrane surface” value (4T1 cells) of the same compound?
A: The value was “about 1.7 times that of the control group”.

Q: What about the “proportion of cells in the late stage of apoptosis (Annexin+PI+)” value (B16F10 cells [3]) of the same compound?
A: Its value is “about 50%”.

Q: What about the “DC cells that phagocytosed tumor cells” value (B16F10 cells [2]) of the same compound?
A: The value was 51.6%.

Q: Which “ratio of tumor-free mice” value (CT26 cells) does the source give for `O=P(O)(O)C(O)(Cn1ccnc1)P(=O)(O)O` [zoledronic acid] here?
A: The value was 90%.

Q: What about the “CRT expressed on the membrane surface” value (4T1 cells) of the same compound?
A: Its value is “about 1.7 times that of the control group”.

Q: What about the “ERp57 expressed on the membrane surface” value (4T1 cells) of the same compound?
A: Its value is “about 1.7 times that of the control group”.

Q: What about the “proportion of cells in the late stage of apoptosis (Annexin+PI+)” value (B16F10 cells [3]) of the same compound?
A: The value was “about 50%”.

Q: And the “DC cells that phagocytosed tumor cells” value (B16F10 cells [2])?
A: Its value is “about 35%”.

Q: Which patient survival rate [4] does the source give for Ipilimumab: humanized CTLA-4 antibody here?
A: The patient survival rate was “approximately 20%”.

Q: With Nivolumab: antibody targeting PD-1 as the compound, how does the “patients with complete remission” value (melanoma) read?
A: Its value is 32%.
